The text below walks through data of ChEMBL document CHEMBL1123821, “Synthesis of 5-chloro-5,8-dideaza analogues of folic acid and aminopterin targeted for colon adenocarcinoma” (J Med Chem, 1987).

What all share (format): functional, cell-based
The test system of experiment [1] is HuTu80. Description: Inhibition of cell growth against HuTu 80 human gastrointestinal adenocarcinoma cell lines in vitro.
Experiment [2] concerns HT-29. The experiment is described as follows: Inhibition of cell growth against HT-29 human gastrointestinal adenocarcinoma cell lines in vitro.
For experiment [3], the system named is SW480. Description: Inhibition of cell growth against SW480 human gastrointestinal adenocarcinoma cell lines in vitro.
Experiment [4] has as its system WiDr. The experiment is described as follows: Inhibition of cell growth against WIDR human gastrointestinal adenocarcinoma cell lines in vitro.

Consider `Cc1c(NCc2ccc(C(=O)NC(CCC(=O)O)C(=O)O)cc2)ccc2nc(N)nc(O)c12` (stereo unspecified), for which, in experiment [1], the IC50 – broadly, the point on the concentration scale where inhibition reaches its midpoint – came to 4000 nM.
As for `Cc1c(CNc2ccc(C(=O)NC(CCC(=O)O)C(=O)O)cc2)ccc2nc(N)nc(N)c12` (stereo unspecified), the 50% inhibitory concentration (IC50) in experiment [2] came to 3 nM; in experiment [1], 3.4 nM; in experiment [3] it was 5 nM; in experiment [4], 5 nM.
`Nc1nc(=O)c2cc(NCc3ccc(C(=O)NC(CCC(=O)O)C(=O)O)cc3)ccc2[nH]1` (stereo unspecified): the IC50 in experiment [2] is 1700 nM; in experiment [1], 4500 nM; in experiment [3], 4500 nM; in experiment [4], 4200 nM.
Turning to `Cc1c(NCc2ccc(C(=O)NC(CCC(=O)O)C(=O)O)cc2)ccc2nc(N)nc(N)c12` (stereo unspecified), the IC50 was 60 nM in experiment [2], 47 nM in experiment [1], 56 nM in experiment [3] and 71 nM in experiment [4].
For the compound `Nc1nc(N)c2c(Cl)c(CNc3ccc(C(=O)NC(CCC(=O)O)C(=O)O)cc3)ccc2n1` (stereo unspecified), the IC50 was found to be 2.3 nM in experiment [2], 1.9 nM in experiment [1], 2 nM in experiment [3] and 2.1 nM in experiment [4].
Regarding `Nc1nc(N)c2c(Cl)c(NCc3ccc(C(=O)NC(CCC(=O)O)C(=O)O)cc3)ccc2n1` (stereo unspecified), the half-inhibitory concentration (IC50) in experiment [2] amounted to 25 nM; in experiment [1], 22 nM; in experiment [3], 20 nM; in experiment [4], 24 nM.
With `Nc1nc(O)c2c(Cl)c(NCc3ccc(C(=O)NC(CCC(=O)O)C(=O)O)cc3)ccc2n1` (stereo unspecified), the half-inhibitory concentration (IC50) in experiment [2] worked out at 6700 nM; in experiment [1] it was 8500 nM; in experiment [3] it was 38000 nM; in experiment [4], 11000 nM.
Regarding `CN(Cc1cnc2nc(N)nc(N)c2n1)c1ccc(C(=O)N[C@@H](CCC(=O)O)C(=O)O)cc1` [METHOTREXATE], inhibition in experiment [1] was half-maximal at 9 nM (IC50).
